How the values were obtained:
[1] = test system: cyclosporine-treated renal transplant recipients; assay: Randomized, double-blind, placebo controlled clinical study in renal transplant recipients on cyclosporine; assay type: in vivo, human; conditions: for Acute Rejection / Creatinine / Creatinine Clearance: 200 µg Q.I.D. with cyclosporine
From the text: A randomized, double-blind, placebo controlled study was designed: (1) to determine the safety and efficacy of a PGE₁ prostaglandin in reducing cyclosporine-induced nephrotoxicity in renal transplant recipients; and (2) to examine the effects of the PGE₁ prostaglandin on the incidence rate of clinically important events such as acute transplant rejection.
The PGE, prostaglandin evaluated was misoprostol, ((±) methyl 11α, 16-dihydroxy-16-methyl-9-oxoprost-13E-en-1-oate). Subjects received the PGE₁ prostaglandin in dosages of 200 µg or a placebo four times a day (Q.I.D.) for the first twelve weeks following transplantation. A study population of 77 subjects was evaluated. Efficacy was assessed by a serial comparison of renal function and by measuring the duration and functional severity of transplant rejection, cyclosporine nephrotoxicity, and other episodes of acute renal failure in the PGE₁ prostaglandin and the placebo groups. Serial measurements of serum creatinine and creatinine clearance were used to determine trends and differences in renal function between treatment groups.
The subjects in the clinical study were first stratified into two groups according to the source of the allograft, cadaver or living-related donor. Members of each group were assigned at random in the order of enrollment to receive the PGE₁ prostaglandin or the placebo according to a computer-generated assignment schedule prepared prior to the start of the study. The purpose of this approach was to guarantee adequate randomization of subjects as a function of allograft source and probable post-transplantation function.
The administration of the prostaglandin began with the first dose of cyclosporine. The subjects received the .prostaglandin Q.I.D. given 30-60 minutes p.c. (after a meal) and h.s. (at night). The prostaglandin initially could be administered via a nasogastric tube. Following discharge of the patient from the hospital. the patient began to administer the placebo or prostaglandin and recording the dosing in a diary. The test article dosing remained one tablet Q.I D. continuing the 30-60 minute p.c and h.s. schedule.
Hematology and chemistry profiles were obtained on the first and seventh post-transplantation days and again after four weeks. A chemistry profile was obtained at eight and twelve weeks. A urinalysis was obtained on the first post-operative day and again after four weeks.
Twenty-four hour creatinine clearance measurements were obtained on post-operative days one, three, and seven, then weekly for three weeks and at four week intervals thereafter until the study was terminated.
Serum creatinine measurements were obtained on postoperative days 1, 3 and 7, and then at weeks 4, 8, 12 and 16.
Measurement of trough cyclosporine levels were required on days one, three, five and seven; twice during each of weeks two, three and four; and at least once during weeks eight, twelve and sixteen.
Acute renal failure was defined as the presence of any of the following: • 1) Any change in renal function which prompted the principal investigator to perform a diagnostic maneuver (e.g., measure of serum creatinine concentration or urinary sodium concentration) or therapeutic maneuver (e.g., give intravenous fluids) to investigate or treat the change. • 2) A rise in serum creatinine concentration from a stable base line of at least 0.2 mg/dl/day for two days or 0.3 mg/dl in one day. • 3) A fall in urine output to less than an average of 25 ml per hour for more than 24 hours.
After twelve weeks of treatment and four additional weeks of observation, the subject underwent a physical examination and a complete medical history was reviewed. The following laboratory tests were also obtained: hematology, PT/PTT, chemistry, urinalysis. creatinine clearance, cyclosporine level and serum beta HCG (where appropriate). In addition, any other measurements of creatinine concentration or clearance obtained during the post-treatment period were recorded.

[2] = test system: mixed lymphocyte response; assay: Mixed lymphocyte response (MLR) assay, tritiated thymidine incorporation; assay type: cell-based; conditions: Figures 9 and 10; for inhibition of the mixed lymphocyte response in combination with cyclosporine: free acid added to cyclosporine; for inhibition of the mixed lymphocyte response in combination with methylprednisolone: free acid added to methylprednisolone
From the text: The mixed lymphocyte response is a clinically useful predictor of the immunosuppressive activity of drugs.The mixed lymphocyte response assay data shown below and in Figures 7-10 were obtained with the following method. A stimulator panel of Epstein-Barr virus (EBV) transformed continuous lymphoblastoid cell lines was employed to magnify responses. There were equal numbers of four cell lines with eight different HLA-DR antigens (two per cell line). Stimulator cells were irradiated (13,000 rad) before suspension in a modified RPMI medium. Responder lymphocytes were prepared from heparinized recipient blood by density gradient separation before suspension in glutamine with antibiotic-supplemented RPMI medium containing 10% autologous serum. Equal numbers of responder and stimulator cells (1x 10⁵ in 0.1 ml) were incubated with 0.05 ml of medium (control) or varying concentrations of the three prostaglandin analogs (misoprostol, enisoprost and misoprostol-free acid) or methylprednisolone or cyclosporine or combinations of these agents.
Following incubation at 37°C and 5% CO₂ for five days, one microcurie of tritiated thymidine was added and cell cultures incubated for six hours. Cells were then harvested. MLR responses for the three different prostaglandin analogs were then compared for several different concentrations (Figure 7). The effects of the prostaglandins were also compared to those of the control ethanol diluent (Figure 8).

[3] = 1 Month after renal transplantation
[4] = 2 Months after renal transplantation
[5] = 3 Months after renal transplantation
[6] = listed as PGE₁ prostaglandin free acid

SMILES	Acute Rejection [1, 3] [first episode/mo]	Creatinine [1, 3] [mg/dL]	Creatinine Clearance [1, 3] [ml/min/1.73m2]	Acute Rejection [1, 4] [first episode/mo]	Creatinine [1, 4] [mg/dL]	Creatinine Clearance [1, 4] [ml/min/1.73m2]	Acute Rejection [1, 5] [first episode/mo]	Creatinine [1, 5] [mg/dL]	Creatinine Clearance [1, 5] [ml/min/1.73m2]	renal function ([1]; cyclosporine-treated renal transplant recipients, versus placebo)	acute rejection versus placebo ([1]; during the three months of treatment, p = 0.015)	cyclosporine absorption (cyclosporine dosage and trough blood levels by HPLC) ([1]; human, in vivo)	cyclosporine nephrotoxicity (incidence rate of first episodes) ([1]; versus placebo, Figure 5)	inhibition of the mixed lymphocyte response in combination with cyclosporine [2]	inhibition of the mixed lymphocyte response in combination with cyclosporine [2, 6]	inhibition of the mixed lymphocyte response in combination with methylprednisolone [2]	inhibition of the mixed lymphocyte response in combination with methylprednisolone [2, 6]
CCCCC(C)(O)C/C=C/[C@H]1[C@H](O)CC(=O)[C@@H]1CCCCCCC(=O)OC (mixture of isomers) [PGE₁, (±) methyl 11α, 16-dihydroxy-16-methyl-9-oxoprost-13E-en-1-oate]	3	1.6 ± 0.2	73 ± 5	2	1.4 ± 0.1	77 ± 6	2	1.4 ± 0.1	81 ± 5	improved renal function	significantly reduced	no interference with cyclosporine absorption	no increase in cyclosporine nephrotoxicity	–	–	–	–
CCCCC(C)(O)CC=CC1C(O)CC(=O)C1CCCCCCC(=O)O (racemic) [misoprostol free acid]	–	–	–	–	–	–	–	–	–	–	–	–	–	clear evidence of enhancement of immunosuppressive activity	larger than additive effect	clear evidence of enhancement of immunosuppressive activity	larger than additive effect

From patent publication EP0372541A1, “Method for imparting immunosuppression” (priority 1988, dated 1990)
